Where only a bound is given, the exact number is not on record here.

For test [1], the target named is T1, Renin (Homo sapiens, UniProt P00797).
T1 sequence (P00797 whole entry): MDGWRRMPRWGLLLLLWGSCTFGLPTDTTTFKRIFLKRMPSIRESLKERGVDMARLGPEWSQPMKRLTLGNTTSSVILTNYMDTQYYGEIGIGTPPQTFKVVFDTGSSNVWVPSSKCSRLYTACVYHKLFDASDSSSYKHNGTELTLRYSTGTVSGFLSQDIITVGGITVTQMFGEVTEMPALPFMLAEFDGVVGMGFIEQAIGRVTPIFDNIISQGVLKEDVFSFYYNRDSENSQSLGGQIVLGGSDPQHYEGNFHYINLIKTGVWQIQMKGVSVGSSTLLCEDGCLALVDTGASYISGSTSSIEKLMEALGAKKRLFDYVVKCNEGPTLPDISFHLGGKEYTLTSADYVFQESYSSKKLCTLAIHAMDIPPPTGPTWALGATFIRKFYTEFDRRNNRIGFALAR
Put plainly: In vitro inhibition of human renin.

The target in test [2] is Pepsin A (Sus scrofa, UniProt P00791). Nature of the test: In vitro inhibition of porcine pepsin.
The target in test [3] is T2, Cathepsin D (Bos taurus, UniProt P80209).
T2 sequence (P80209 whole entry): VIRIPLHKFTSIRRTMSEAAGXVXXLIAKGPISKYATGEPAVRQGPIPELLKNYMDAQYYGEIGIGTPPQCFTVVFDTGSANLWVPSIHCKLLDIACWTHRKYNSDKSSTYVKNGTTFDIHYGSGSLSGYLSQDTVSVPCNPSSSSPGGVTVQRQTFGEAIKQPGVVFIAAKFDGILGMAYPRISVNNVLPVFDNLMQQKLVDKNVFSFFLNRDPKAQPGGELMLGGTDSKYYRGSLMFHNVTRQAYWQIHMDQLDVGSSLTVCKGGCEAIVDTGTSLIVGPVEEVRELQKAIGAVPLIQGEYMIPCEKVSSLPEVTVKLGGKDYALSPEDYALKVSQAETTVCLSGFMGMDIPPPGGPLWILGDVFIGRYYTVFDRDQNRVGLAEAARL
Put plainly: In vitro inhibition of bovine cathepsin D.

Chain of Pepsin A (P00791 whole entry): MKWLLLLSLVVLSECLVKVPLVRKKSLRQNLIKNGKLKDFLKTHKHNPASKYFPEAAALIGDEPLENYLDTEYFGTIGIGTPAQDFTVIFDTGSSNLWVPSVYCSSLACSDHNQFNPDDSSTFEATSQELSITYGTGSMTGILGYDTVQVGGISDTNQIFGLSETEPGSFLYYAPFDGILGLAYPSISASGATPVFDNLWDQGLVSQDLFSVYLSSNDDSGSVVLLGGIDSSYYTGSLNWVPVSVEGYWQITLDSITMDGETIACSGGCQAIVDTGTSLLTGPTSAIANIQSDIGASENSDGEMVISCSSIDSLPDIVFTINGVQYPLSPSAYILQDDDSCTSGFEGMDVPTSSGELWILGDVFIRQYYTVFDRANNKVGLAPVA

As to `CCCC[C@H](OP(=O)(O)CCCc1ccccc1)C(=O)N[C@@H](CC1CCCCC1)[C@@H](O)CCSc1ccccn1`, the IC50 in test [1] was 115 nM; in test [2], greater than 10000 nM; in test [3] it was greater than 10000 nM.
Turning to `CCCC[C@H](OP(=O)(O)CCCc1ccccc1)C(=O)N[C@@H](CC1CCCCC1)[C@@H](O)C(=O)OC(C)C`, the IC50 was 55 nM in test [1], greater than 10000 nM in test [2] and greater than 10000 nM in test [3].
As for `CCC[C@@H](OP(=O)(CCCc1ccccc1)OCC)C(=O)N[C@@H](CC1CCCCC1)[C@@H](O)[C@@H](O)CC(C)C` (stereo in doubt; 8f), the IC50 was 17.7 nM in test [1], greater than 10000 nM in test [2] and 2150 nM in test [3].
For `CCCCNC(=O)[C@@H](C[C@H](O)[C@H](CC(C)C)NC(=O)[C@H](CCCC)OP(=O)(O)CCCc1ccccc1)C(C)C`, in that order: 2.8 nM, 10000 nM and 2300 nM.
Regarding `CCCCNC(=O)[C@H](C)C[C@H](O)[C@H](CC1CCCCC1)NC(=O)[C@@H](CCC)OP(=O)(O)CCCc1ccccc1`, the results for the IC50 in test [1], in test [2] and in test [3] were 3.8 nM, greater than 10000 nM and greater than 10000 nM, respectively.
For the compound `CCCCNC(=O)[C@@H](C)C[C@@H](O)[C@@H](CC1CCCCC1)NC(=O)[C@H](CCCC)OP(=O)(O)CCCc1ccccc1`, the IC50 in test [1] was 4.8 nM; in test [2] it was greater than 10000 nM; in test [3], greater than 10000 nM.
Turning to `CCCCNC(=O)[C@H](C)C[C@H](O)[C@H](CC1CCCCC1)NC(=O)[C@@H](C)OP(=O)(O)CCCc1ccccc1`, the IC50 in test [1] was 16 nM; in test [2] it was greater than 10000 nM; in test [3] it was greater than 10000 nM.
Consider `CCCCNC(=O)[C@H](C)C[C@H](O)[C@H](CC1CCCCC1)NC(=O)[C@H](CCCC)OP(=O)(CCCc1ccccc1)OCC` (stereo in doubt; 7l), for which the IC50 is 215 nM in test [1], greater than 10000 nM in test [2] and greater than 10000 nM in test [3].
With `CCCCNC(=O)[C@H](C)C[C@H](O)[C@H](CC1CCCCC1)NC(=O)[C@H](CCC)OP(=O)(O)CCCc1ccccc1`, the IC50 was 4.2 nM in test [1], greater than 10000 nM in test [2] and greater than 10000 nM in test [3].
Turning to `CCCCNC(=O)[C@H](C)C[C@H](O)[C@H](CC1CCCCC1)NC(=O)[C@@H](CCCC)OP(=O)(CCCc1ccccc1)OCC` (stereo in doubt; 7i), the IC50 is 22.5 nM in test [1], greater than 10000 nM in test [2] and greater than 10000 nM in test [3].
As to `CCC[C@@H](OP(=O)(CCCc1ccccc1)OCC)C(=O)N[C@@H](CC1CCCCC1)[C@@H](O)[C@@H](O)CC(C)C` (stereo in doubt; 8g), the IC50 in test [1] was 130 nM; in test [2], greater than 10000 nM; in test [3], greater than 10000 nM.
For the compound `CCC[C@@H](OP(=O)(CCCc1ccccc1)OCC)C(=O)N[C@@H](CC1CCCCC1)[C@@H](O)[C@@H](O)C1CC1` (stereo in doubt; 8i), the IC50 was 155 nM in test [1], greater than 10000 nM in test [2] and greater than 10000 nM in test [3].
As for `CCCCNC(=O)[C@H](C)C[C@H](O)[C@H](CC1CCCCC1)NC(=O)[C@H](C)OP(=O)(O)CCCc1ccccc1`, the IC50 was 17.5 nM in test [1], greater than 10000 nM in test [2] and greater than 10000 nM in test [3].
Turning to `CCCC[C@H](OP(=O)(O)CCCc1ccccc1)C(=O)N[C@@H](CC1CCCCC1)[C@@H](O)CC(=O)N[C@@H](C(=O)NCc1cnc(C)nc1N)[C@@H](C)CC`, the IC50 in test [1] is 58 nM; in test [2], greater than 10000 nM; in test [3], greater than 10000 nM.
Regarding `CCCCNC(=O)[C@H](C)C[C@H](O)[C@H](CC1CCCCC1)NC(=O)[C@H](CCCC)OP(=O)(CCCc1ccccc1)OCC` (stereo in doubt; 7k), the IC50 is 15 nM in test [1], greater than 10000 nM in test [2] and 2800 nM in test [3].
In the same order, the values of `CCCCNC(=O)[C@@H](C)C[C@@H](O)[C@@H](CC1CCCCC1)NC(=O)[C@H](CCCC)OP(=O)(O)CCCCc1ccccc1` are 360 nM, greater than 10000 nM and greater than 10000 nM.
For `CCCC[C@H](OP(=O)(O)CCCc1ccccc1)C(=O)N[C@@H](CC1CCCCC1)[C@@H](O)C(O)CC(C)C` (stereo partly drawn), in that order: 25 nM, greater than 10000 nM and greater than 10000 nM.
In the case of `CCCCNC(=O)[C@@H](C)C[C@@H](O)[C@@H](CC1CCCCC1)NC(=O)[C@H](CCCC)OP(=O)(O)CCc1ccccc1`, the figures for the IC50 in test [1], in test [2] and in test [3] were 46 nM, greater than 10000 nM and greater than 10000 nM, respectively.
`CCCCNC(=O)[C@H](C)C[C@H](O)[C@H](CC1CCCCC1)NC(=O)[C@@H](CCCC)OP(=O)(CCCc1ccccc1)OCC` (stereo in doubt; 7j): the IC50 is 350 nM in test [1], greater than 10000 nM in test [2] and greater than 10000 nM in test [3].
Take `CCCCNC(=O)[C@H](C)C[C@H](O)[C@H](CC1CCCCC1)NC(=O)[C@H](CCCC)OP(=O)(O)CCCc1ccccc1`: the figures for the IC50 in test [1], in test [2] and in test [3] were 2.5 nM, greater than 10000 nM and greater than 10000 nM, respectively.
Take `CCC[C@@H](OP(=O)(CCCc1ccccc1)OCC)C(=O)N[C@@H](CC1CCCCC1)[C@@H](O)[C@@H](O)C1CC1` (stereo in doubt; 8h): the IC50 in test [1] was 20 nM; in test [2], greater than 10000 nM; in test [3], 4150 nM.

The values are drawn from ChEMBL document CHEMBL1127696, “Non-peptide renin inhibitors containing 2-(((3-phenylpropyl)phosphoryl)oxy)alkanoic acid moieties as P2-P3 replacements” (J Med Chem, 1994).
